Reference: patent US20230220206A1, “REJUVENATING AGENTS FOR ASPHALT RECYCLING” (BASF SE, priority 2020, published 2023)
Read-outs that look alike come from different tables or passages of the source.

Experiments:
[1] = MSCR test, percentage elastic recovery; type: physicochemical; details: bitumen 20/30 + 5% compound
[2] = bitumen 20/30 + 5% compound
[3] = labelling of the product itself; — = none; cited from earlier work
[4] = Softening point ring & ball of rejuvenated bitumen; details: bitumen 20/30 rejuvenated with 5% of the compound, 180° C., 30 minutes
[5] = type: physicochemical; details: bitumen extracted from RAP + 5% compound
[6] = Force ductility of rejuvenated polymer-modified bitumen; type: physicochemical; details: Olexobit 45 + 5% compound
Text: (§1) Herewith, it will be shown that the positive effects of the here claimed rejuvenating agents can also be applied to PmB, in this case Olexobit 45. Olexobit 45 was therefore rejuvenated according to the procedure of Example 1.

[7] = Softening point of rejuvenated RAP bitumen; type: physicochemical; details: bitumen extracted from RAP + 5% compound
[8] = BBR of rejuvenated polymer-modified bitumen; type: physicochemical; details: Olexobit 45 + 5% compound
Protocol: (§2) Different bitumen samples were rejuvenated as in Example 1, and the BBR values S (flexural creep stiffness) and m […] were evaluated at −16° C. The results were compared to the not rejuvenated bitumen sample as well as to the bitumen rejuvenated with the benchmark RheoFalt® HP-AM (Comp. 1.3).

[9] = MSCR elastic recovery of rejuvenated polymer-modified bitumen; type: physicochemical; details: Olexobit 45 + 5% compound
[10] = Softening point of rejuvenated aged bitumen; type: physicochemical; details: aged bitumen 50/70 PCK Schwedt + 5% compound
[11] = Ageing index (RTFOT ageing) of rejuvenated polymer-modified bitumen; type: physicochemical; details: Olexobit 45 + 5% compound; viscosity after ageing divided by viscosity before ageing
Text: as §1

[12] = Softening point of rejuvenated aged bitumen; type: physicochemical; details: aged bitumen 50/70 BP + 5% compound
[13] = MSCR elastic recovery of rejuvenated aged bitumen; type: physicochemical; details: aged bitumen 50/70 BP + 5% compound
[14] = type: physicochemical; details: aged bitumen 50/70 BP + 5% compound
[15] = type: physicochemical; details: aged bitumen 50/70 PCK Schwedt + 5% compound
[16] = Softening point of rejuvenated polymer-modified bitumen; type: physicochemical; details: Olexobit 45 + 5% compound
[17] = Low temperature performance, bending beam rheometer (BBR) at −16° C.; type: physicochemical; details: bitumen 20/30 + 5% compound
Protocol: as §2

[18] = Loss tangent from DSR frequency sweep at 60° C.; type: physicochemical
Text: In addition, it could be shown that additives according to the present invention perform most of the times better than the common benchmarks according to the standard testing techniques for the low, mid and high temperature range. What cannot be extracted from these measurements however is an indication of the working mechanism.

[19] = MSCR elastic recovery of rejuvenated RAP bitumen; type: physicochemical; details: bitumen extracted from RAP + 5% compound
[20] = MSCR elastic recovery of rejuvenated aged bitumen; type: physicochemical; details: aged bitumen 50/70 PCK Schwedt + 5% compound
[21] = type: physicochemical; details: Olexobit 45 + 5% compound

CCCCCCCCCCCCc1ccc(S(=O)(=O)O)cc1 [Dodecylbenzene sulfonic acid]
MSCR % Rec. (0.1 kPa) [1]: 27%
MSCR % Rec. (1.6 kPa) [1]: 25%
MSCR % Rec. (3.2 kPa) [1]: 21%
η(135° C.) [mPas] [2]: 2,100 mPas
tox (toxicology/eco toxicology) [3]: Harmful
SP [° C.] (softening point) [4]: 64.0 °C

CC(C)CCCCCCOC(=O)C1CCCCC1C(=O)OCCCCCCC(C)C (stereo not drawn) [Hexamoll ® DINCH, diisononyl cyclohexane-1,2-dicarboxylate]
η(135° C.) [mPas] [5]: 1,200 mPas
Force Ductility Fmax [N] [6]: 12 N
Force Ductility W [J/cm^2] [6]: 1.0 J/cm^2
SP [° C.] [7]: 59.0 °C
MSCR % Rec. (0.1 kPa) [1]: 10%
MSCR % Rec. (1.6 kPa) [1]: 4%
MSCR % Rec. (3.2 kPa) [1]: 1%
BBR S-value [MPa] [8]: 80 MPa
BBR m-value [8]: 0.43
MSCR % Rec. (0.1 kPa) ([9]; 0.1 kPa): 19%
MSCR % Rec. (1.6 kPa) ([9]; 1.6 kPa): 7%
MSCR % Rec. (3.2 kPa) ([9]; 3.2 kPa): 4%
SP [° C.] [10]: 56.0 °C
AI (ageing index) [11]: 2.1
SP [° C.] [12]: 56.5 °C
MSCR % Rec. (0.1 kPa) ([13]; 0.1 kPa): 14%
MSCR % Rec. (1.6 kPa) ([13]; 1.6 kPa): 10%
MSCR % Rec. (3.2 kPa) ([13]; 3.2 kPa): 5%
η(135° C.) [mPas] [14]: 1,000 mPas
η(135° C.) [mPas] [2]: 950 mPas
η(135° C.) [mPas] [15]: 1,000 mPas
SP [° C.] [16]: 49.0 °C
S-value [MPa] (flexural creep stiffness) [17]: 90 MPa
m-value [17]: 0.41
tan δ ([18]; aged bitumen 50/70 BP + 5% compound, lowest frequency): 35
tan δ ([18]; aged bitumen 50/70 PCK Schwedt + 5% compound, lowest frequency): 40
tan δ ([18]; bitumen 20/30 + 5% compound, lowest frequency (0.01 rad/s)): 45
tan δ ([18]; bitumen extracted from RAP + 5% compound, lowest frequency): 25
MSCR % Rec. (0.1 kPa) ([19]; 0.1 kPa): 16%
MSCR % Rec. (1.6 kPa) ([19]; 1.6 kPa): 12%
MSCR % Rec. (3.2 kPa) ([19]; 3.2 kPa): 7%
SP [° C.] (softening point) [4]: 52.0 °C
MSCR % Rec. (0.1 kPa) ([20]; 0.1 kPa): 11%
MSCR % Rec. (1.6 kPa) ([20]; 1.6 kPa): 7%
MSCR % Rec. (3.2 kPa) ([20]; 3.2 kPa): 3%
η(135° C.) [mPas] [21]: 700 mPas
